{"source": "paper PMC5218480", "about": "(PLoS ONE, 2017)", "tested_on": "MV-4-11 cells", "test": "Gene expression microarray analysis (Affymetrix PrimeView) and GSEA", "assay_type": "cell-based, human", "set-up": "RFU PODN (11730768_x_at) / Fold change /veh PODN (11730768_x_at) / RFU LINC00158 (11744669_a_at) / Fold change /veh LINC00158 (11744669_a_at) / RFU DUSP10 (11751237_a_at) / Fold change /veh DUSP10 (11751237_a_at) / RFU ID3 (11757404_x_at) / Fold change /veh ID3 (11757404_x_at) / RFU PLEKHG5 (11737974_s_at) / Fold change /veh PLEKHG5 (11737974_s_at) / RFU LRRC4B (11730491_at) / Fold change /veh LRRC4B (11730491_at) / RFU GIMAP4 (11747438_a_at) / Fold change /veh GIMAP4 (11747438_a_at) / RFU KRT8 (11758183_x_at) / Fold change /veh KRT8 (11758183_x_at) / RFU CNN1 (11734310_a_at) / Fold change /veh CNN1 (11734310_a_at) / RFU VPS37D (11726825_at) / Fold change /veh VPS37D (11726825_at) / RFU C10orf10 (11716522_x_at) / Fold change /veh C10orf10 (11716522_x_at) / RFU KIR2DL2 /// KIR2DL4 /// KIR2DL5A /// KIR2DL5B /// KIR2DS1 /// KIR2DS2 /// KIR2DS3 /// KIR2DS4 /// KIR3DL3 /// KIR3DL3 /// KIR3DS1 (11738374_at) / Fold change /veh KIR2DL2 /// KIR2DL4 /// KIR2DL5A /// KIR2DL5B /// KIR2DS1 /// KIR2DS2 /// KIR2DS3 /// KIR2DS4 /// KIR3DL3 /// KIR3DL3 /// KIR3DS1 (11738374_at) / RFU C1QL1 (11718748_at) / Fold change /veh C1QL1 (11718748_at) / RFU TMPRSS4 (11747572_a_at) / Fold change /veh TMPRSS4 (11747572_a_at) / RFU HAMP (11756126_x_at) / Fold change /veh HAMP (11756126_x_at) / RFU RNFT2 (11725882_a_at) / Fold change /veh RNFT2 (11725882_a_at) / RFU NR4A2 (11747474_a_at) / Fold change /veh NR4A2 (11747474_a_at) / RFU ABCC12 (11746883_a_at) / Fold change /veh ABCC12 (11746883_a_at) / RFU TMEM136 (11760407_x_at) / Fold change /veh TMEM136 (11760407_x_at) / RFU CLDN22 /// WWC2 (11732394_at) / Fold change /veh CLDN22 /// WWC2 (11732394_at) / RFU HLA-DPB1 (11760878_x_at) / Fold change /veh HLA-DPB1 (11760878_x_at) / RFU SPINT1 (11716480_a_at) / Fold change /veh SPINT1 (11716480_a_at) / RFU GAP43 (11754022_s_at) / Fold change /veh GAP43 (11754022_s_at) / RFU A4GNT (11735810_at) / Fold change /veh A4GNT (11735810_at) / RFU PRB3 (11715151_x_at) / Fold change /veh PRB3 (11715151_x_at) / RFU TUBB4B (11761932_at) / Fold change /veh TUBB4B (11761932_at) / RFU CAPN14 (11732068_a_at) / Fold change /veh CAPN14 (11732068_a_at) / RFU TMCC2 (11721928_a_at) / Fold change /veh TMCC2 (11721928_a_at) / RFU IRGQ (11745062_a_at) / Fold change /veh IRGQ (11745062_a_at) / RFU FAM174B (11720279_a_at) / Fold change /veh FAM174B (11720279_a_at) / RFU TMPRSS4 (11748680_a_at) / Fold change /veh TMPRSS4 (11748680_a_at) / RFU FAM212B (11763350_a_at) / Fold change /veh FAM212B (11763350_a_at) / RFU PLEKHG5 (11743358_a_at) / Fold change /veh PLEKHG5 (11743358_a_at) / RFU ZSCAN30 (11745921_a_at) / Fold change /veh ZSCAN30 (11745921_a_at) / RFU CMKLR1 (11741424_a_at) / Fold change /veh CMKLR1 (11741424_a_at) / RFU LOC101060620 /// MAPK8IP1 (11723275_at) / Fold change /veh LOC101060620 /// MAPK8IP1 (11723275_at) / RFU SPTSSB (11747773_x_at) / Fold change /veh SPTSSB (11747773_x_at) / RFU PRSS12 (11739890_at) / Fold change /veh PRSS12 (11739890_at) / RFU BIN1 (11741810_x_at) / Fold change /veh BIN1 (11741810_x_at) / RFU WNT11 (11732464_a_at) / Fold change /veh WNT11 (11732464_a_at) / RFU C10orf10 (11716521_a_at) / Fold change /veh C10orf10 (11716521_a_at) / RFU C5orf56 (11738089_at) / Fold change /veh C5orf56 (11738089_at) / RFU CYB561 (11721691_x_at) / Fold change /veh CYB561 (11721691_x_at) / RFU ANKRD19P (11752326_a_at) / Fold change /veh ANKRD19P (11752326_a_at) / RFU OR2T12 /// OR2T33 /// OR2T8 (11738714_s_at) / Fold change /veh OR2T12 /// OR2T33 /// OR2T8 (11738714_s_at) / RFU VCAN (11748164_a_at) / Fold change /veh VCAN (11748164_a_at) / RFU JSRP1 (11732532_at) / Fold change /veh JSRP1 (11732532_at) / RFU KRTAP10-11 (11738290_x_at) / Fold change /veh KRTAP10-11 (11738290_x_at) / RFU MYO3A (11730013_a_at) / Fold change /veh MYO3A (11730013_a_at) / RFU EBF3 (11725865_a_at) / Fold change /veh EBF3 (11725865_a_at) / RFU CAMK2N1 (11719241_x_at) / Fold change /veh CAMK2N1 (11719241_x_at) / RFU C5orf56 (11738088_a_at) / Fold change /veh C5orf56 (11738088_a_at) / RFU OLFML3 (11715873_a_at) / Fold change /veh OLFML3 (11715873_a_at) / RFU LOC100653217 /// NTM (11731650_a_at) / Fold change /veh LOC100653217 /// NTM (11731650_a_at) / RFU MAPK11 (11762145_a_at) / Fold change /veh MAPK11 (11762145_a_at) / RFU FIZ1 (11724087_x_at) / Fold change /veh FIZ1 (11724087_x_at) / RFU OASL (11726364_x_at) / Fold change /veh OASL (11726364_x_at) / RFU SOX15 (11748057_x_at) / Fold change /veh SOX15 (11748057_x_at) / RFU CD79A (11719716_a_at) / Fold change /veh CD79A (11719716_a_at) / RFU HIST1H1D (11736915_at) / Fold change /veh HIST1H1D (11736915_at) / RFU CASKIN2 (11723855_a_at) / Fold change /veh CASKIN2 (11723855_a_at) / RFU LOC730098 (11760151_x_at) / Fold change /veh LOC730098 (11760151_x_at) / RFU OR4N2 (11742367_at) / Fold change /veh OR4N2 (11742367_at) / RFU PRRT2 (11749266_a_at) / Fold change /veh PRRT2 (11749266_a_at) / RFU SNX32 (11753110_a_at) / Fold change /veh SNX32 (11753110_a_at) / RFU CDHR5 (11726645_a_at) / Fold change /veh CDHR5 (11726645_a_at) / RFU RCAN1 (11760418_a_at) / Fold change /veh RCAN1 (11760418_a_at) / RFU FAM167A (11723789_a_at) / Fold change /veh FAM167A (11723789_a_at) / RFU FAM26E (11764081_at) / Fold change /veh FAM26E (11764081_at) / RFU ISYNA1 (11749810_s_at) / Fold change /veh ISYNA1 (11749810_s_at) / RFU ACY1 (11761880_at) / Fold change /veh ACY1 (11761880_at) / RFU 11764098_at / Fold change /veh 11764098_at / RFU SAMD14 (11745864_x_at) / Fold change /veh SAMD14 (11745864_x_at) / RFU NPB (11741838_a_at) / Fold change /veh NPB (11741838_a_at) / RFU TMPRSS6 (11731388_a_at) / Fold change /veh TMPRSS6 (11731388_a_at) / RFU KRTAP10-2 (11738614_at) / Fold change /veh KRTAP10-2 (11738614_at) / RFU ARHGAP8 /// PRR5-ARHGAP8 (11727945_x_at) / Fold change /veh ARHGAP8 /// PRR5-ARHGAP8 (11727945_x_at) / RFU KRTAP5-7 /// NADSYN1 (11734609_at) / Fold change /veh KRTAP5-7 /// NADSYN1 (11734609_at) / RFU RASL12 (11751679_a_at) / Fold change /veh RASL12 (11751679_a_at) / RFU CDKN2B (11736163_a_at) / Fold change /veh CDKN2B (11736163_a_at) / RFU PRF1 (11729649_at) / Fold change /veh PRF1 (11729649_at) / RFU, ZNF638 /// ZNF638-IT1 / Fold change vs veh, ZNF638 /// ZNF638-IT1 / RFU, PANK3 / Fold change vs veh, PANK3 / RFU, SH3YL1 / Fold change vs veh, SH3YL1 / RFU, ZEB2 / Fold change vs veh, ZEB2 / RFU, NRIP1 / Fold change vs veh, NRIP1 / RFU, PTTG1IP / Fold change vs veh, PTTG1IP / RFU, CAPN2 / Fold change vs veh, CAPN2 / RFU, MED14 / Fold change vs veh, MED14 / RFU, SNORA58 / Fold change vs veh, SNORA58 / RFU, C1orf63 / Fold change vs veh, C1orf63 / RFU, LRRFIP1 / Fold change vs veh, LRRFIP1 / RFU, NDUFAF7 / Fold change vs veh, NDUFAF7 / RFU, SLC12A2 / Fold change vs veh, SLC12A2 / RFU, IBTK / Fold change vs veh, IBTK / RFU, ESF1 / Fold change vs veh, ESF1 / Fold change vs veh, TMEM50B / RFU, TAOK1 / Fold change vs veh, TAOK1 / RFU, ACBD3 / Fold change vs veh, ACBD3 / RFU, TMA16 / Fold change vs veh, TMA16 / RFU, RWDD3 / Fold change vs veh, RWDD3 / RFU, BCAT1 / Fold change vs veh, BCAT1 / RFU, EDEM3 / Fold change vs veh, EDEM3 / RFU, TMEM33 / Fold change vs veh, TMEM33 / RFU, WDR75 / Fold change vs veh, WDR75 / RFU, AHCTF1 / Fold change vs veh, AHCTF1 / RFU, TFRC / Fold change vs veh, TFRC / RFU, ZDHHC17 / Fold change vs veh, ZDHHC17 / RFU, NOM1 / Fold change vs veh, NOM1 / RFU, ARL8B / Fold change vs veh, ARL8B / RFU, ZBTB11 / Fold change vs veh, ZBTB11 / RFU, TAMM41 / Fold change vs veh, TAMM41 / RFU, KIAA1704 /// LOC100996395 / Fold change vs veh, KIAA1704 /// LOC100996395 / RFU, ING1 / Fold change vs veh, ING1 / RFU, TRMT61B / Fold change vs veh, TRMT61B / RFU, FUBP3 / Fold change vs veh, FUBP3 / RFU, TP53 / Fold change vs veh, TP53 / RFU, TNKS2 / Fold change vs veh, TNKS2 / RFU, ZFP14 / Fold change vs veh, ZFP14 / RFU, ACTR2 / Fold change vs veh, ACTR2 / RFU, PPP3R1 / Fold change vs veh, PPP3R1 / RFU, PIK3R1 / Fold change vs veh, PIK3R1 / RFU, HNRNPA1 / Fold change vs veh, HNRNPA1 / RFU, RNF170 / Fold change vs veh, RNF170 / RFU, ZNF28 / Fold change vs veh, ZNF28 / RFU, RNGTT / Fold change vs veh, RNGTT / RFU, OGT / Fold change vs veh, OGT / RFU, BRD1 / Fold change vs veh, BRD1 / RFU, MARS / Fold change vs veh, MARS / RFU, ZNF655 / Fold change vs veh, ZNF655 / RFU, FAHD1 / Fold change vs veh, FAHD1 / RFU, BDP1 / Fold change vs veh, BDP1 / RFU, LRRCC1 / Fold change vs veh, LRRCC1 / RFU, ARID1A / Fold change vs veh, ARID1A / RFU, ZNF146 / Fold change vs veh, ZNF146 / RFU, ZNF330 / Fold change vs veh, ZNF330 / RFU, GPN3 / Fold change vs veh, GPN3 / RFU, C9orf123 / Fold change vs veh, C9orf123 / RFU, N4BP2L2 / Fold change vs veh, N4BP2L2 / RFU, ARFIP1 / Fold change vs veh, ARFIP1 / RFU, FAM179B / Fold change vs veh, FAM179B / RFU, BCL10 / Fold change vs veh, BCL10 / RFU, UHRF1BP1L / Fold change vs veh, UHRF1BP1L / RFU, BET1 / Fold change vs veh, BET1 / RFU, CNOT2 / Fold change vs veh, CNOT2 / RFU, ZNF268 / Fold change vs veh, ZNF268 / Fold change vs veh, ZNF507 / RFU, DGCR2 / Fold change vs veh, DGCR2 / RFU, WDSUB1 / Fold change vs veh, WDSUB1 / Fold change vs veh, HSP90B1 /// MIR3652 / RFU, ADSS / Fold change vs veh, ADSS / RFU, GK / Fold change vs veh, GK / RFU, ZNF148 / Fold change vs veh, ZNF148 / RFU, TAF9 / Fold change vs veh, TAF9 / RFU, SLC1A5 / Fold change vs veh, SLC1A5 / RFU, SLMO2 / Fold change vs veh, SLMO2 / RFU, ABCC4 / Fold change vs veh, ABCC4 / RFU, LOC101060439 /// RAP1B / Fold change vs veh, LOC101060439 /// RAP1B / RFU, RFX7 / Fold change vs veh, RFX7 / RFU, GTPBP10 / Fold change vs veh, GTPBP10 / RFU, CNEP1R1 / Fold change vs veh, CNEP1R1 / RFU, BIVM-ERCC5 /// ERCC5 / Fold change vs veh, BIVM-ERCC5 /// ERCC5 / RFU, ILF3 / Fold change vs veh, ILF3 / RFU 11762660_at / Fold change /veh 11762660_at / RFU VCAN (11757783_s_at) / Fold change /veh VCAN (11757783_s_at) / RFU DDX43 (11728927_at) / Fold change /veh DDX43 (11728927_at) / RFU KRT8 (11758188_x_at) / Fold change /veh KRT8 (11758188_x_at) / RFU NKD1 (11759106_at) / Fold change /veh NKD1 (11759106_at) / RFU SRD5A1 (11742802_a_at) / Fold change /veh SRD5A1 (11742802_a_at) / RFU TPSAB1 /// TPSB2 (11721975_s_at) / Fold change /veh TPSAB1 /// TPSB2 (11721975_s_at) / RFU GSTM3 (11746129_a_at) / Fold change /veh GSTM3 (11746129_a_at) / RFU IL23R (11737362_x_at) / Fold change /veh IL23R (11737362_x_at) / RFU TMEM51 (11727254_a_at) / Fold change /veh TMEM51 (11727254_a_at) / RFU PIWIL2 (11732686_x_at) / Fold change /veh PIWIL2 (11732686_x_at) / RFU ORM1 (11744905_x_at) / Fold change /veh ORM1 (11744905_x_at) / RFU CCDC152 (11743942_at) / Fold change /veh CCDC152 (11743942_at) / RFU ECM1 (11717891_a_at) / Fold change /veh ECM1 (11717891_a_at) / RFU IL23R (11748794_a_at) / Fold change /veh IL23R (11748794_a_at) / RFU TNFAIP8L3 (11732012_x_at) / Fold change /veh TNFAIP8L3 (11732012_x_at) / RFU MBOAT4 (11741988_at) / Fold change /veh MBOAT4 (11741988_at) / RFU 11764193_at / Fold change /veh 11764193_at / RFU TMEM53 (11763286_at) / Fold change /veh TMEM53 (11763286_at) / RFU MAGEB2 (11727129_at) / Fold change /veh MAGEB2 (11727129_at) / RFU TMEM200A (11744735_a_at) / Fold change /veh TMEM200A (11744735_a_at) / RFU CCDC152 (11751479_a_at) / Fold change /veh CCDC152 (11751479_a_at) / RFU FAM211A (11726209_a_at) / Fold change /veh FAM211A (11726209_a_at) / RFU RGS16 (11746705_a_at) / Fold change /veh RGS16 (11746705_a_at) / RFU VCAN (11755009_s_at) / Fold change /veh VCAN (11755009_s_at) / RFU RHOB (11743442_s_at) / Fold change /veh RHOB (11743442_s_at) / RFU RGS16 (11720943_a_at) / Fold change /veh RGS16 (11720943_a_at) / RFU RGS16 (11720944_at) / Fold change /veh RGS16 (11720944_at) / RFU, VPS4B / Fold change vs veh, VPS4B / RFU, CREB1 / Fold change vs veh, CREB1 / RFU, DNAJC13 / Fold change vs veh, DNAJC13 / RFU, GNAQ / Fold change vs veh, GNAQ / RFU, CDK5R1 / Fold change vs veh, CDK5R1 / RFU, ZRANB3 / Fold change vs veh, ZRANB3 / RFU, CUL4A / Fold change vs veh, CUL4A / RFU, CCNY / Fold change vs veh, CCNY / RFU, UFL1 / Fold change vs veh, UFL1 / RFU, COG3 / Fold change vs veh, COG3 / RFU, DIAPH2 / Fold change vs veh, DIAPH2 / RFU, SKA2 / Fold change vs veh, SKA2 / RFU, AFF3 / Fold change vs veh, AFF3 / RFU, LMF1 / Fold change vs veh, LMF1 / RFU, IPO11 / Fold change vs veh, IPO11 / RFU, DFFB / Fold change vs veh, DFFB / RFU, FOXP1 / Fold change vs veh, FOXP1 / RFU, CARD8 / Fold change vs veh, CARD8 / RFU, STRN3 / Fold change vs veh, STRN3 / RFU, ADK / Fold change vs veh, ADK / RFU, RASSF2 / Fold change vs veh, RASSF2 / RFU, WIPF1 / Fold change vs veh, WIPF1 / RFU, LARP1B / Fold change vs veh, LARP1B / RFU, RASA1 / Fold change vs veh, RASA1 / RFU, RB1 / Fold change vs veh, RB1 / RFU, PPFIA1 / Fold change vs veh, PPFIA1 / RFU, MAT2A / Fold change vs veh, MAT2A / RFU, CCT5 / Fold change vs veh, CCT5 / RFU, WDR92 / Fold change vs veh, WDR92 / RFU, CUX1 / Fold change vs veh, CUX1 / RFU, TTC7A / Fold change vs veh, TTC7A / RFU, TMEM135 / Fold change vs veh, TMEM135 / RFU, DEPTOR / Fold change vs veh, DEPTOR / RFU, CPM / Fold change vs veh, CPM / RFU, DNAJB6 / Fold change vs veh, DNAJB6 / RFU, CACNA2D3 / Fold change vs veh, CACNA2D3 / RFU, DTX4 / Fold change vs veh, DTX4 / RFU, TFCP2 / Fold change vs veh, TFCP2 / RFU, GMCL1 /// GMCL1P1 / Fold change vs veh, GMCL1 /// GMCL1P1 / RFU, AEBP2 / Fold change vs veh, AEBP2 / RFU, SNHG1 /// SNORD22 /// SNORD25 /// SNORD26 /// SNORD27 /// SNORD28 /// SNORD29 /// SNORD31 / Fold change vs veh, SNHG1 /// SNORD22 /// SNORD25 /// SNORD26 /// SNORD27 /// SNORD28 /// SNORD29 /// SNORD31 / Fold change (Aza/veh), C12orf56 (ProbeSet 11735607_a_at) / Fold change (ACY-1035/veh), C12orf56 (ProbeSet 11735607_a_at) / Fold change (Aza/veh), FGFR1OP (ProbeSet 11751329_s_at) / Fold change (ACY-1035/veh), FGFR1OP (ProbeSet 11751329_s_at) / Fold change (Aza/veh), VPS36 (ProbeSet 11739960_a_at) / Fold change (ACY-1035/veh), VPS36 (ProbeSet 11739960_a_at) / RFU SYPL1 (11715823_x_at) / Fold change /veh SYPL1 (11715823_x_at) / RFU IGFBP7 (11715501_s_at) / Fold change /veh IGFBP7 (11715501_s_at) / RFU REEP3 (11722064_at) / Fold change /veh REEP3 (11722064_at) / RFU IGLL1 (11728026_x_at) / Fold change /veh IGLL1 (11728026_x_at): dose or concentration left out as unconfirmed", "conditions": "MV-4-11 cells, 48 hours"}
{"smiles": "Nc1ncn([C@@H]2O[C@H](CO)[C@@H](O)[C@H]2O)c(=O)n1", "note": "[azacitidine]", "values": [{"measurement": "Fold change /veh LINC00158 (11744669_a_at)", "result": 1.04}]}
